From ChEMBL document CHEMBL1146654, “3-(7-Azaindolyl)-4-arylmaleimides as potent, selective inhibitors of glycogen synthase kinase-3” (Bioorg Med Chem Lett, 2004) come the findings set out here.

Holding throughout (design): scale not given: the % may be the effect or the level left
Test [1] deals with Mitogen-activated protein kinase 11 (Homo sapiens) (UniProt Q15759). Nature of the test: Inhibition of Stress activated protein kinase 2b.
The target of test [2] is Cyclin-dependent kinase 7/ cyclin H (Homo sapiens) (UniProt P51946+P50613). Put plainly: Inhibition of Cyclin-dependent kinase 7-cyclin H. In kind it is protein-complex assay.
In test [3] the target is Serine/threonine-protein kinase N2 (Homo sapiens) (UniProt Q16513). Nature of the test: Inhibition of compound PRK2.
Test [4] deals with Ribosomal protein S6 kinase alpha-1 (Rattus norvegicus) (UniProt Q63531). Nature of the test: Inhibition of Ribosomal S6 kinase 1.
In test [5] the target is RAF proto-oncogene serine/threonine-protein kinase (Homo sapiens) (UniProt P04049). Put plainly: Inhibition of RAF proto-oncogene serine/threonine-protein kinase.
Test [6] addresses Mitogen-activated protein kinase 14 (Homo sapiens) (UniProt Q16539). Nature of the test: Inhibition of Stress activated protein kinase 2a.
Test [7] has as its target Ribosomal protein S6 kinase alpha-3 (Homo sapiens, UniProt P51812). Nature of the test: Inhibition of Ribosomal S6 kinase 3.
Test [8] addresses Protein kinase C gamma type (Homo sapiens, UniProt P05129). Nature of the test: Inhibition of PKCgamma.
Test [9] addresses RAC-beta serine/threonine-protein kinase (Homo sapiens) (UniProt P31751). Nature of the test: Inhibition of PKBbeta.
The species entered for the next test is Bos taurus. Put plainly: Inhibition of bovine PKA.
For test [10], the target named is CDK3/cyclin E (Homo sapiens) (UniProt P24864+O96020+Q00526). Nature of the test: Inhibition of Cyclin-dependent kinase 3-cyclin E. In kind it is protein-complex assay.
Test [11] deals with T1, Inhibitor of nuclear factor kappa-B kinase subunit alpha (Homo sapiens) (UniProt O15111).
T1 sequence (whole entry): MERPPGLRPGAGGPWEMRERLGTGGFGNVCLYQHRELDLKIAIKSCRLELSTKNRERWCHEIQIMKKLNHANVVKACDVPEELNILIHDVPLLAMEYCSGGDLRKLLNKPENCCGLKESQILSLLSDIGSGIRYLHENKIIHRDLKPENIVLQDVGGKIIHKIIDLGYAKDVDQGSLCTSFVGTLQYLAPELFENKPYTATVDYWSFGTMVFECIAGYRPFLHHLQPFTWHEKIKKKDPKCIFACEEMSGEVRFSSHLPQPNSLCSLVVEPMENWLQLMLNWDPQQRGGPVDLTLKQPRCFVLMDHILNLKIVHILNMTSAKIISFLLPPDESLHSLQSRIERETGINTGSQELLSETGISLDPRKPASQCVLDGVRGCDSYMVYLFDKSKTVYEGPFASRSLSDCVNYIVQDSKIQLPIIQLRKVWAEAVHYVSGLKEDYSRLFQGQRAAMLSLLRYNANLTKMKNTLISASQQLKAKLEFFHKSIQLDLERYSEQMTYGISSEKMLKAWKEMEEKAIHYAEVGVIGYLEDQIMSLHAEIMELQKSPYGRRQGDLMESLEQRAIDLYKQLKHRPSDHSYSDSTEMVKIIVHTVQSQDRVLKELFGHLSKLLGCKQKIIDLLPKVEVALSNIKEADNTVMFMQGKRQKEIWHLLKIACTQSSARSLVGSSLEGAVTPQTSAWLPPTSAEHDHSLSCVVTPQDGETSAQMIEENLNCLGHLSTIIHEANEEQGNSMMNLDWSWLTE
Put plainly: Inhibition of I kappa-B kinase alpha.

The target in test [12] is Ca2+/calmodulin-dependent protein kinase II (CaM kinase II) (Rattus norvegicus) (UniProt P11275+P08413+P15791+P11730). Nature of the test: Inhibition of Calcium/calmodulin-dependent protein kinase type II. In kind it is protein assay.
For test [13], the target named is T2, Dual specificity mitogen-activated protein kinase kinase 4 (Mus musculus) (UniProt P47809).
T2 sequence (whole entry): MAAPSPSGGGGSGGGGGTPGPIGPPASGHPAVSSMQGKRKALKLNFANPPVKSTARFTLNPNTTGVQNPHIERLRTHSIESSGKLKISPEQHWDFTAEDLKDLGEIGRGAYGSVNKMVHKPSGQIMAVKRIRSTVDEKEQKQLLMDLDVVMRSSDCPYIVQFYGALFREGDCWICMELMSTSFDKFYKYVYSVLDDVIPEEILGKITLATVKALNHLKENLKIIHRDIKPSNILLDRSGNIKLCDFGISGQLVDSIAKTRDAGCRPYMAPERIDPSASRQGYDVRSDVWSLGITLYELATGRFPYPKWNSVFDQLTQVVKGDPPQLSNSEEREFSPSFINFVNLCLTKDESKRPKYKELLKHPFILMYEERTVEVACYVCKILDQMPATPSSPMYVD
Nature of the test: Inhibition of Mitogen activated protein kinase kinase 4.

Test [14] deals with Mitogen-activated protein kinase 1 (Mus musculus) (UniProt P63085). Put plainly: (§1) Inhibition of mitogen-activated protein kinase 2.
Test [15] deals with Mitogen-activated protein kinase 1 (Homo sapiens) (UniProt P28482). The description is as §1.
The species named for the next test is Mus musculus. Put plainly: Inhibition of Abl kinase.
In test [16] the target is T3, Mitogen-activated protein kinase 13 (Homo sapiens) (UniProt O15264).
T3 sequence (whole entry): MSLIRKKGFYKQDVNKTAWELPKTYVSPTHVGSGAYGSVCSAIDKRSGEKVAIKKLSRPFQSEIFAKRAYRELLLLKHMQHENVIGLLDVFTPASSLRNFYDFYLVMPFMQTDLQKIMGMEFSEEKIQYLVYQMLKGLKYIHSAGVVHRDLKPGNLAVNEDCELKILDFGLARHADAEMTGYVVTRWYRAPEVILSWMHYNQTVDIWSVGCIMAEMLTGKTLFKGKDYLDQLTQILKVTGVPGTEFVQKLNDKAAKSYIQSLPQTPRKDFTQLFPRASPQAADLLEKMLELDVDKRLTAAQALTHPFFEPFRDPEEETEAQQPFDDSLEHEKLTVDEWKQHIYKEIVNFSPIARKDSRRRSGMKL
Nature of the test: Inhibition of Stress activated protein kinase 4.

Test [17] concerns the target Cyclin-dependent kinase 2/cyclin E (Homo sapiens) (UniProt P24864+P24941+O96020). Put plainly: Inhibition of CDK2/cyclin E. In kind it is protein-complex assay.
Test [18] has as its target T4, Mitogen-activated protein kinase 12 (Homo sapiens) (UniProt P53778).
T4 sequence (whole entry): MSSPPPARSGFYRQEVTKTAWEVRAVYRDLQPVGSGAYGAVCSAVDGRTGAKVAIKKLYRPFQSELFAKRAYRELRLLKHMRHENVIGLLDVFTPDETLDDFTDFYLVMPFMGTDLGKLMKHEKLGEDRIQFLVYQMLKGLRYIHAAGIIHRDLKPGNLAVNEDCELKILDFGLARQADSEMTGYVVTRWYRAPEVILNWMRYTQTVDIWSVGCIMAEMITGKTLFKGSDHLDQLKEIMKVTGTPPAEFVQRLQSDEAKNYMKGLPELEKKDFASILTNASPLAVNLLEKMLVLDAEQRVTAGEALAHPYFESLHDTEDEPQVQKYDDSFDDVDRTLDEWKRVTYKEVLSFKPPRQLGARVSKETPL
Nature of the test: Inhibition of Stress activated protein kinase 3.

Sequence of RAF proto-oncogene serine/threonine-protein kinase (Homo sapiens) (P04049 whole entry): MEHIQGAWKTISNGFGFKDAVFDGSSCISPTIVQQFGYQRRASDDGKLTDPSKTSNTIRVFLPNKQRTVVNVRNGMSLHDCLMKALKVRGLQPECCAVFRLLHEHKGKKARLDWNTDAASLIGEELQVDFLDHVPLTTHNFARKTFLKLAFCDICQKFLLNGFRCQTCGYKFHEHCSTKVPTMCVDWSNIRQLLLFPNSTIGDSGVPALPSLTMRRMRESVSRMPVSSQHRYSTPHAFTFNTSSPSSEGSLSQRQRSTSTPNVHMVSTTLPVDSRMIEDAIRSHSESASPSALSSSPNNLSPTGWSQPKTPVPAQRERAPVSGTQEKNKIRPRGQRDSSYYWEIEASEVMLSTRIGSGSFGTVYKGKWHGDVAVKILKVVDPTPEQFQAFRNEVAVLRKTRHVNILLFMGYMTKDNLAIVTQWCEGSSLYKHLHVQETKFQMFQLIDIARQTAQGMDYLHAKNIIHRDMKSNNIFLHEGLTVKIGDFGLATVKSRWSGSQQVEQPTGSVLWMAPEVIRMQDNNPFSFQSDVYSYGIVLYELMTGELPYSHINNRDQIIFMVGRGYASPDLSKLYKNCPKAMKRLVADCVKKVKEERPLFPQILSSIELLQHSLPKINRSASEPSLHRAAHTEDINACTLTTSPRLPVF
Sequence of Ribosomal protein S6 kinase alpha-3 (P51812 whole entry): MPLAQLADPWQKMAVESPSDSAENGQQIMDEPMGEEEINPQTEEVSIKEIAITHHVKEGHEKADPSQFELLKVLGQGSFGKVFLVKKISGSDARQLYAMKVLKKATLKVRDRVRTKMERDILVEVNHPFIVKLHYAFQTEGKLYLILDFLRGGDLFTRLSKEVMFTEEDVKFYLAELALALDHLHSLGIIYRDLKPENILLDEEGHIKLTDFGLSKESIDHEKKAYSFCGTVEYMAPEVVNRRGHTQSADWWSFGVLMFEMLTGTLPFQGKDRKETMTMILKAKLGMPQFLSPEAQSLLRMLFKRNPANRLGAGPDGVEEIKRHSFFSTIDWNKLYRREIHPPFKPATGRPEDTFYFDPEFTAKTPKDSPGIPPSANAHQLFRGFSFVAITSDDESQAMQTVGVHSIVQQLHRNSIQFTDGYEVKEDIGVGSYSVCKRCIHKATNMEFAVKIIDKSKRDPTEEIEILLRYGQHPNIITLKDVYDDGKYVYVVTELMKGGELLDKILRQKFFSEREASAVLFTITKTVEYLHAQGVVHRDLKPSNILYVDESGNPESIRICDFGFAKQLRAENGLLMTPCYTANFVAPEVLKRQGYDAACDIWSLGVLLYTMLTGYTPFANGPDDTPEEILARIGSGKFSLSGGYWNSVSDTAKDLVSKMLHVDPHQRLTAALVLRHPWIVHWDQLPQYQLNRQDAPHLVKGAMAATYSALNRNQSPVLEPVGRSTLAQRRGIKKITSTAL
Sequence of CDK3/cyclin E (Homo sapiens) (O96020 whole entry, looked up): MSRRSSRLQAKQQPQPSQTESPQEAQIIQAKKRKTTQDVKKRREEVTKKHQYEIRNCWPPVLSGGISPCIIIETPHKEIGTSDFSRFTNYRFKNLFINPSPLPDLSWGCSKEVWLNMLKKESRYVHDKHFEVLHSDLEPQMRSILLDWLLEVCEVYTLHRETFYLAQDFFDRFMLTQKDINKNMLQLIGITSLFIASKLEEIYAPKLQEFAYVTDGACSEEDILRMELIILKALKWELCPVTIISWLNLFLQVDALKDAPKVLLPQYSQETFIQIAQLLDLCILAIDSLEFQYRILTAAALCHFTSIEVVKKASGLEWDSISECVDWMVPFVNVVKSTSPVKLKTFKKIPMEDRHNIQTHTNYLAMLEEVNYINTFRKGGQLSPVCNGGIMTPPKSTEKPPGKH
Sequence of CDK3/cyclin E (Homo sapiens) (P24864 whole entry, looked up): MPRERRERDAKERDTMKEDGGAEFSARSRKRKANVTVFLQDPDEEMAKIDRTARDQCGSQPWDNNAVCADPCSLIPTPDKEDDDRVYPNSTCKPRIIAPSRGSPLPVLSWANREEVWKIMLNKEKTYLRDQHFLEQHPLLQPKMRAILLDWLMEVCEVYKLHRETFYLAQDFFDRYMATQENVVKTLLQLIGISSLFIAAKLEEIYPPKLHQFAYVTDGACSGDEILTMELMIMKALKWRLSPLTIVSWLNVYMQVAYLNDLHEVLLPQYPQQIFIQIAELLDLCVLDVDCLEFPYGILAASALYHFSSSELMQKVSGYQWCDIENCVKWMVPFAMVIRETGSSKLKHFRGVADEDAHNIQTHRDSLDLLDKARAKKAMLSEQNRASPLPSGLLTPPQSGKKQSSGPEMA
Sequence of CDK3/cyclin E (Homo sapiens) (Q00526 whole entry, looked up): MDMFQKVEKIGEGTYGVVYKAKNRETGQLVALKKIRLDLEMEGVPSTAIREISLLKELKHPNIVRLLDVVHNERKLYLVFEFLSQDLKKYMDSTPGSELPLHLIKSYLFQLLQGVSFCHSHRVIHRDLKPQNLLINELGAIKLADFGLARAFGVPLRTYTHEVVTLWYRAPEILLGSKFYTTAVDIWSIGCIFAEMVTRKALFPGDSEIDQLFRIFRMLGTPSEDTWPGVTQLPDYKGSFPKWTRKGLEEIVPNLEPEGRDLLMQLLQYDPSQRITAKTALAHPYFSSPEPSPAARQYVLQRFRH
Sequence of Mitogen-activated protein kinase 1 (Homo sapiens) (P28482 whole entry): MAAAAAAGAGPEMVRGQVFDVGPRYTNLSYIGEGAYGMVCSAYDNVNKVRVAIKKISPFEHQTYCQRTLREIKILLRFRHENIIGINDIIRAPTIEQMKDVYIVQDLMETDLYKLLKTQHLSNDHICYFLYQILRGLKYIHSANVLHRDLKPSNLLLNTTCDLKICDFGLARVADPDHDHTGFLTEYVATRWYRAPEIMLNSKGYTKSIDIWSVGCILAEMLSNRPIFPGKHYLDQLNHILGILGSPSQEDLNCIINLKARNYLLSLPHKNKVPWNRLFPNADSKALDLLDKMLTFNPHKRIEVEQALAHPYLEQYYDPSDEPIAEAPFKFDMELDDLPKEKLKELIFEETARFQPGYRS
Sequence of Serine/threonine-protein kinase N2 (Homo sapiens) (Q16513 whole entry, looked up): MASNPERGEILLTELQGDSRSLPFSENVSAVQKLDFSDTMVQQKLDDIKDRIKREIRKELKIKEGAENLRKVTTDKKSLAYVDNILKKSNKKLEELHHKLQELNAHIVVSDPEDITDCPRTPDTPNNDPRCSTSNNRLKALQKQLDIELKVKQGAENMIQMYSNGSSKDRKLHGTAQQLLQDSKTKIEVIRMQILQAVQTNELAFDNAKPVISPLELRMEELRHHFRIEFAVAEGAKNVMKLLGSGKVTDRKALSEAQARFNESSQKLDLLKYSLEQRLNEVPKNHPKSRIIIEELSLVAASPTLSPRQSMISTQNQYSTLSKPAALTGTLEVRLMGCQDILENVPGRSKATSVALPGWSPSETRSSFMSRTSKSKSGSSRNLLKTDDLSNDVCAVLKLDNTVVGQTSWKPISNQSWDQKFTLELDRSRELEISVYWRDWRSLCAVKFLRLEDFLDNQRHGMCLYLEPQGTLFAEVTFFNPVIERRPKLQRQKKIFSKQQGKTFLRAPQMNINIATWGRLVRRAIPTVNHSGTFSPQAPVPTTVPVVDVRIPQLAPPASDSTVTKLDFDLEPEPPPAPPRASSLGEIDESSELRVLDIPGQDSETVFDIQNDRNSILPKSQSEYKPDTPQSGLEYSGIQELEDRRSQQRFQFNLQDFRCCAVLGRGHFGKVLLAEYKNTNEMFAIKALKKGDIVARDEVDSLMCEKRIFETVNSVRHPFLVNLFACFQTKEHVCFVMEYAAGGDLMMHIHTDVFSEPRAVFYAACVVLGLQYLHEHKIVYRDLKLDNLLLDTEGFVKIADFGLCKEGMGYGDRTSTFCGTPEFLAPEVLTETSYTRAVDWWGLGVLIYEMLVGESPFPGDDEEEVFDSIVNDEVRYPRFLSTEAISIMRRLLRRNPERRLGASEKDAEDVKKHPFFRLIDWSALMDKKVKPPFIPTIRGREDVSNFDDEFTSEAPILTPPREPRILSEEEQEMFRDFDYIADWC
Sequence of RAC-beta serine/threonine-protein kinase (Homo sapiens) (P31751 whole entry): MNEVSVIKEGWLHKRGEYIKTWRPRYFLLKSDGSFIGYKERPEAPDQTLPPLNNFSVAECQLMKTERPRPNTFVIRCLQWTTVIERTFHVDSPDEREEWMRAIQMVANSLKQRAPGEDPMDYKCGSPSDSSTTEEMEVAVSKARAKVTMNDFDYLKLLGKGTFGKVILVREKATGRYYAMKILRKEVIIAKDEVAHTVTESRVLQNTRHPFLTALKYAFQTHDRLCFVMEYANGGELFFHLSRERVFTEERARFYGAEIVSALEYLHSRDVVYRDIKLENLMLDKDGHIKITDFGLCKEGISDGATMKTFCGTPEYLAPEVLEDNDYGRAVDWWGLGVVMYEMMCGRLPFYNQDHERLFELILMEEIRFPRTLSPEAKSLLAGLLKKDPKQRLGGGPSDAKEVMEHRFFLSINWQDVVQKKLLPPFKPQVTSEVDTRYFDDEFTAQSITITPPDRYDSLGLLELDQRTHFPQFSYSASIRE
Sequence of Mitogen-activated protein kinase 11 (Homo sapiens) (Q15759 whole entry): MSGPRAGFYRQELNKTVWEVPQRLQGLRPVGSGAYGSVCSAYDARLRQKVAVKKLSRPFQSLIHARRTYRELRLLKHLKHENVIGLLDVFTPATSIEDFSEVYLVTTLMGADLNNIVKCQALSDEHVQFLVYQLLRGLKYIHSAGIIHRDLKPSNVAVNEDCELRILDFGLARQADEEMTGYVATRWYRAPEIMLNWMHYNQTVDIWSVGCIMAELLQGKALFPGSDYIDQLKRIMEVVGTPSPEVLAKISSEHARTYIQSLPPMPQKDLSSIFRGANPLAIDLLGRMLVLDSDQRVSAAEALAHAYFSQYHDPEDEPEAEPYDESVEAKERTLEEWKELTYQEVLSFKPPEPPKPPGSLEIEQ

With `COCCCn1cc(C2=C(c3ccccc3O)C(=O)NC2=O)c2cccnc21`, the Activity in [1] worked out at 102%; in [2], 47%; in [3], 76%; in test [4], 48%; in [5], 74%; in [6], 84%. Besides, the Activity in test [7] is 33%; in test [8] it was 59%; in test [9], 82%; in the test listed under Bos taurus it was 99%; in [10] it was 26%; in [11] it was 83%. In addition, the Activity is 63% in test [12]; 86% in [13]; 100% in test [14]; 92% in test [15]; 86% in the test filed under Mus musculus; 97% in test [16]. Further, the Activity in [17] was found to be 11%; in test [18], 120%.

As to `COc1ccccc1C1=C(c2cn(CCCNC(=O)OC(C)(C)C)c3ncccc23)C(=O)NC1=O`, the Activity in [1] was found to be 106%; in test [2], 60%; in [3] it was 68%; in test [4] it was 38%; in [5], 92%; in test [6], 109%. Further, the Activity in test [7] is 24%; in [8], 76%; in [9] it was 99%; in the test filed under Bos taurus, 112%; in test [10] it was 3%; in [11], 89%. For the same molecule, the Activity in [12] came to 60%; in [13], 101%; in test [14], 89%; in test [15], 92%; in the test listed under Mus musculus, 91%; in [16] it was 100%. The Activity was 3% in test [17] and 122% in [18].

With `O=C1NC(=O)C(c2cn(CCCO)c3ncccc23)=C1c1ncc(C(F)(F)F)cc1Cl`, the Activity in test [1] came out at 94%; in test [2] it was 59%; in test [3], 71%; in test [4] it was 66%; in test [5], 74%; in test [6], 81%. Further, the Activity is 60% in test [7]; 72% in test [8]; 69% in [9]; 86% in the test listed under Bos taurus; 62% in [10]; 76% in test [11]. For the same molecule, the Activity in test [12] turned out to be 76%; in [13] it was 87%; in test [14], 93%; in test [15], 91%; in the test filed under Mus musculus, 93%; in test [16] it was 86%. Moreover, the Activity came out at 30% in test [17] and 86% in test [18].
